From ChEMBL document CHEMBL5034037, “Synthesis, Characterization, and Preclinical Evaluation of a Small-Molecule Prostate-Specific Membrane Antigen-Targeted Monomethyl Auristatin E Conjugate” (J Med Chem, 2021)
Values joined by “and” are separate entries in the source; they are usually repeats but may differ in a detail not shown here. Identical values can stand only once. Active and inactive are the calls of the source. No cut-off for these calls is given here. *1 amine or outer side, *2 acyl side, *3 side chain or, on linkers, in order; H or OH if unused. Where a SMILES comes first, the peptide text is derived from it. [ ]: non-standard residue; d: D form. The star is where a group is joined. GluureaLys(ε-3-ClBenzyl) = O=C(O)CC[C@H](NC(=O)N[C@@H](CCCCN(Cc1cccc(Cl)c1)*)C(=O)O)C(=O)O; Dolaproine = CO[C@@H]([C@@H]1CCCN1)[C@@H](C)C(=O)O; Dil = CC[C@H](C)[C@H](NC)[C@@H](CC(=O)O)OC; X1 = O=C(CCCc1cn(CCCN[*:1])nn1)[*:2]; PABC = O=C(OCc1ccc(N[*:1])cc1)[*:2]; X2 = C[C@@H](N*)[C@@H](O)c1ccccc1; Cit = NC(=O)NCCC[C@H](N)C(=O)O; Suc = O=C(CCC(=O)[*:2])[*:1]; NMeV = CN[C@H](C(=O)O)C(C)C; Ahx = NCCCCCC(=O)O

Legend:
[1] = Toxicity in rat assessed as morphological changes in urinary bladder at 150 to 225 microg/kg, iv; settings: in vivo, dose 150-225 µg/kg
[2] = Elimination rate constant in rabbit at 0.81 mg/kg, iv; type: ADME, organism-based, Oryctolagus cuniculus; settings: in vivo
Cytochrome P450 1A2 [3] = molecular target: T1, Cytochrome P450 1A2 (Homo sapiens, UniProt P05177); assay: Inhibition of CYP1A2 in human liver microsome using phenacetin as substrate; type: ADME, microsomes
T1 sequence (P05177 whole entry): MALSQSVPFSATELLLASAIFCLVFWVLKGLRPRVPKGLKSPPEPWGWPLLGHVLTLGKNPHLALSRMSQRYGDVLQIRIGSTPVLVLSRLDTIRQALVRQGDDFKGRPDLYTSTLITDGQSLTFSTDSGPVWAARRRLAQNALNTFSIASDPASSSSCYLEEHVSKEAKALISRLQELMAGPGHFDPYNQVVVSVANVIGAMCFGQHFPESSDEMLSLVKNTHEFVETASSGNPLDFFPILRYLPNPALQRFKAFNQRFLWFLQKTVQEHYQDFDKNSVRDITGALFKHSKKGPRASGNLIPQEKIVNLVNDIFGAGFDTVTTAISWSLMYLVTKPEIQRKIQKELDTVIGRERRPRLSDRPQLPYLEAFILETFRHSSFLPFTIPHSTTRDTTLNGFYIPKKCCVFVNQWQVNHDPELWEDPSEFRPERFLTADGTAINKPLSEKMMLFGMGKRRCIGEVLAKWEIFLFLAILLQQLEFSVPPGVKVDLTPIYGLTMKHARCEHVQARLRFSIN

[4] = Toxicity in rabbit assessed as morphological changes in diameter of aorta at 81 to 122 microg/kg, iv; type: tissue-based, Oryctolagus cuniculus; settings: in vivo, dose 81-122 µg/kg
[5] = Toxicity in rat assessed as morphological changes in kidney at 150 to 225 microg/kg, iv; type: tissue-based; settings: in vivo, dose 150-225 µg/kg
[6] = Stability of the compound in mouse liver microsome assessed as half life; type: ADME; settings: liver microsomes
Salmonella typhimurium [7] = assay: Mutagenecity in Salmonella typhimurium TA97 in presence of metabolic activation system at 1 ug/ml by Ames test; type: toxicity, organism-based; settings: salmonella enterica subsp. enterica serovar typhimurium; dose 1 µg/ml
[8] = Toxicity in rabbit assessed as morphological changes in duodenum at 81 to 122 microg/kg, iv; type: tissue-based, Oryctolagus cuniculus; settings: in vivo, dose 81-122 µg/kg
Salmonella typhimurium [9] = assay: Mutagenecity in Salmonella typhimurium TA97 without metabolic activation system at 1 ug/ml by Ames test; type: toxicity, organism-based; settings: salmonella enterica subsp. enterica serovar typhimurium; dose 1 µg/ml
[10] = Toxicity in rat assessed as morphological changes in diameter of aorta at 150 to 225 microg/kg, iv; type: tissue-based; settings: in vivo, dose 150-225 µg/kg
Cytochrome P450 2C8 = molecular target: T2, Cytochrome P450 2C8 (Homo sapiens, UniProt P10632); assay: Inhibition of CYP2C8 in human liver microsome using paclitaxel as substrate; type: ADME, microsomes
T2 sequence (P10632 whole entry): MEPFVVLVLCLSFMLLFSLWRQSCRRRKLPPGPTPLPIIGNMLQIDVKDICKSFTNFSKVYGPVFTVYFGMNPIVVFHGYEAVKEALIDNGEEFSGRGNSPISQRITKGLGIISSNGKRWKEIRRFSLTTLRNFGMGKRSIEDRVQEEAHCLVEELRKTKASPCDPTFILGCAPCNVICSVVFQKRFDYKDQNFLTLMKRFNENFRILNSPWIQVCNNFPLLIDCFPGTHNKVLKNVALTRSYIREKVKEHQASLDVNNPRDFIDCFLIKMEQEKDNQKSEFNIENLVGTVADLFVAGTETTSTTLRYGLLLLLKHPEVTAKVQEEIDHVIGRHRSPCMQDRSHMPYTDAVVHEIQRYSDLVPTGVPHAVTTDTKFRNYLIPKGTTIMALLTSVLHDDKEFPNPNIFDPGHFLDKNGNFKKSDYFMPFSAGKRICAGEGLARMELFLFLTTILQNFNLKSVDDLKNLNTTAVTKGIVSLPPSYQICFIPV

Cytochrome P450 2D6 = Cytochrome P450 2D6 (Homo sapiens, UniProt P10635); assay: Drug metabolism assessed as human liver microsome CYP2D6-mediatd metabolism; type: ADME; settings: microsomes
[11] = Half life in Wistar rat at 1.5 mg/kg, iv; type: ADME, organism-based; settings: in vivo
Salmonella typhimurium [12] = assay: Mutagenecity in Salmonella typhimurium TA98 without metabolic activation system at 1 ug/ml by Ames test; type: toxicity, organism-based; settings: salmonella enterica subsp. enterica serovar typhimurium; dose 1 µg/ml
[13] = Toxicity in rabbit assessed as morphological changes in kidney at 81 to 122 microg/kg, iv; type: tissue-based, Oryctolagus cuniculus; settings: in vivo, dose 81-122 µg/kg
Salmonella typhimurium [14] = assay: Mutagenecity in Salmonella typhimurium TA100 in presence of metabolic activation system at 100 ug/ml by Ames test; type: toxicity, organism-based; settings: salmonella enterica subsp. enterica serovar typhimurium; dose 100 µg/ml
[15] = Chronic toxicity in rabbit assessed as mortality rate at 5.4 microg/kg, iv dosed measured at day 4; type: organism-based, Oryctolagus cuniculus; settings: in vivo, 0.0054 mg/kg, dose 5.4 µg/kg, read-out: Activity
[16] = Chronic toxicity in rat assessed as change in acidity at […], iv administered once every 3 weeks for 3 months; type: organism-based; settings: in vivo, 504 h, dose lower 150 mg/kg
[17] = Acute toxicity in iv dosed Wistar rat assessed as median mortality dose; type: organism-based; settings: in vivo
[18] = Chronic toxicity in rat assessed as diarrhea at 10 microg/kg, iv; settings: in vivo, 0.01 mg/kg, dose 10 µg/kg
[19] = Toxicity in rabbit assessed as pathological change in leydig cells in testes at 81 to 122 microg/kg, iv; type: cell-based, Oryctolagus cuniculus; settings: in vivo, dose 81-122 µg/kg
[20] = Toxicity in rabbit assessed as morphological changes in cerebrum at 81 to 122 microg/kg, iv; type: tissue-based, Oryctolagus cuniculus; settings: in vivo, dose 81-122 µg/kg
[21] = Toxicity in rat assessed as morphological changes in duodenum at 150 to 225 microg/kg, iv; type: tissue-based; settings: in vivo, dose 150-225 µg/kg
Cytochrome P450 1A2 [22] = molecular target: T1, Cytochrome P450 1A2; assay: Drug metabolism assessed as human liver microsome CYP1A2-mediatd metabolism; type: ADME; settings: microsomes
[23] = Chronic toxicity in rabbit assessed as decrease in the blood lymphocyte count at […], iv administered once every 3 weeks for 3 months; type: organism-based, Oryctolagus cuniculus; settings: in vivo, 504 h, dose lower 81 mg/kg
Salmonella typhimurium [24] = assay: Mutagenecity in Salmonella typhimurium TA98 in presence of metabolic activation system at 10000 ug/ml by Ames test; type: toxicity, organism-based; settings: salmonella enterica subsp. enterica serovar typhimurium; dose 10000 µg/ml
[25] = Toxicity in rabbit assessed as morphological changes in lumen of trachea at 81 to 122 microg/kg, iv; type: tissue-based, Oryctolagus cuniculus; settings: in vivo, dose 81-122 µg/kg
[26] = Toxicity in rabbit assessed as histological change in spermatagonia in seminiferous tubule in testes at 81 to 122 microg/kg, iv; parameters: species or system Oryctolagus cuniculus; settings: in vivo, dose 81-122 µg/kg
Salmonella typhimurium [27] = assay: Mutagenecity in Salmonella typhimurium TA100 in presence of metabolic activation system at 10 ug/ml by Ames test; type: toxicity, organism-based; settings: salmonella enterica subsp. enterica serovar typhimurium; dose 10 µg/ml
CWR22R = assay: Induction morphological changes in human 22Rv1 cells assessed as decrease in cell membrane stiffness measured upto 1 hr; type: functional, cell-based; settings: time hrs <=1
Salmonella typhimurium [28] = assay: Mutagenecity in Salmonella typhimurium TA97 in presence of metabolic activation system at 10000 ug/ml by Ames test; type: toxicity, organism-based; settings: salmonella enterica subsp. enterica serovar typhimurium; dose 10000 µg/ml
[29] = Toxicity in rabbit assessed as morphological changes in gastric wall mucosa at 81 to 122 microg/kg, iv; parameters: species or system Oryctolagus cuniculus; settings: in vivo, dose 81-122 µg/kg

Cytochrome P450 2D6, sequence (P10635 whole entry): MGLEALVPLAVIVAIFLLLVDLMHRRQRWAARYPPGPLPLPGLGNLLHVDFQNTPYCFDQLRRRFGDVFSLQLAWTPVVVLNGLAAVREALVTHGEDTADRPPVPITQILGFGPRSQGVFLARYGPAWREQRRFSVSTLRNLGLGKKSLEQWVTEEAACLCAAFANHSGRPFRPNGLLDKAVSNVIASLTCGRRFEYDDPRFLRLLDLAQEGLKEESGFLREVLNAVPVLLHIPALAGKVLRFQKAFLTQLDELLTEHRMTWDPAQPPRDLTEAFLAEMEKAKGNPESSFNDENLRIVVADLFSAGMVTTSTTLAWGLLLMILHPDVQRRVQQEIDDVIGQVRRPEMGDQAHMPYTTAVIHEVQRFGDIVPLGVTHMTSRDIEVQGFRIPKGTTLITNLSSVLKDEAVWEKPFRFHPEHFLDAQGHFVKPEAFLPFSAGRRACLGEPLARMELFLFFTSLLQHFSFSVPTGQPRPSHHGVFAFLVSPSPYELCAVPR

Structure (SMILES): CC[C@H](C)[C@@H]([C@@H](CC(=O)N1CCC[C@H]1[C@H](OC)[C@@H](C)C(=O)N[C@H](C)[C@@H](O)c1ccccc1)OC)N(C)C(=O)[C@@H](NC(=O)[C@H](C(C)C)N(C)C(=O)OCc1ccc(NC(=O)[C@H](CCCNC(N)=O)NC(=O)[C@@H](NC(=O)CCCc2cn(CCCNC(=O)[C@H](Cc3ccc(O)cc3)NC(=O)[C@H](Cc3ccccc3)NC(=O)CCC(=O)NCCCCCC(=O)N(CCCC[C@H](NC(=O)N[C@@H](CCC(=O)O)C(=O)O)C(=O)O)Cc3cccc(Cl)c3)nn2)C(C)C)cc1)C(C)C ({GluureaLys(ε-3-ClBenzyl)-Ahx-Suc}-FY[X1]V[Cit][PABC][NMeV]V[Dil][Dolaproine]-X2)
- Activity [1]: Non-Toxic
- k el [2]: 4.72e-05 s⁻¹
- IC50 (Cytochrome P450 1A2 [3]): > 25 µM
- Activity [4]: Non-Toxic
- Activity [5]: Non-Toxic
- half-life [6]: 0.457 h
- Activity (Salmonella typhimurium [7]): Non-Toxic
- Activity [8]: Non-Toxic
- Activity (Salmonella typhimurium [9]): Non-Toxic
- Activity [10]: Non-Toxic
- IC50 (Cytochrome P450 2C8): > 25 µM
- Drug metabolism (Cytochrome P450 2D6): Metabolite_Notdetected
- half-life [11]: 4.7 h
- Activity (Salmonella typhimurium [12]): Non-Toxic
- Activity [13]: Non-Toxic
- Activity (Salmonella typhimurium [14]): Non-Toxic
- mortality at 4 day [15]: 100%
- Activity [16]: Toxic
- LD50 [17]: 4.9 mg/kg and 2.2 µmol/kg
- Activity [18]: Toxic
- Activity [19]: Non-Toxic
- Activity [20]: Non-Toxic
- Activity [21]: Non-Toxic
- Drug metabolism (Cytochrome P450 1A2 [22]): Metabolite_Notdetected
- Activity [23]: Toxic
- Activity (Salmonella typhimurium [24]): Non-Toxic
- Activity [25]: Non-Toxic
- Activity [26]: Toxic
- Activity (Salmonella typhimurium [27]): Non-Toxic
- Activity (CWR22R): Active
- Activity (Salmonella typhimurium [28]): Non-Toxic
- Activity [29]: Non-Toxic
